Results as given in publication PMC11859928, “Design, Synthesis, and Antiproliferative Activity of Novel Indole/1,2,4-Triazole Hybrids as Tubulin Polymerization Inhibitors” (Pharmaceuticals, 2025).
Like-named read-outs stand apart in the source and are kept apart here.

Key:
Renal cancer subpanel = assay: NCI five-dose assay, subpanel mean; assay type: cell-based, human
HCC-2998 = assay: NCI five-dose assay; assay type: cell-based, human; details: HCC-2998, Colon cancer
U251 = assay: NCI five-dose assay; assay type: cell-based, human; details: U251, CNS cancer
NCI-H23 = assay: NCI five-dose assay; assay type: cell-based, human; details: NCI-H23, Non-small cell lung cancer
BT-549 = assay: NCI five-dose assay; assay type: cell-based, human; details: BT-549, Breast cancer
OVCAR-3 = assay: NCI five-dose assay; assay type: cell-based, human; details: Homo sapiens, OVCAR-3, Ovarian cancer
Ovarian cancer subpanel = assay: NCI five-dose assay, subpanel mean; assay type: cell-based, human
HOP-92 = assay: NCI five-dose assay; assay type: cell-based, human; details: HOP-92, Non-small cell lung cancer
KM12 = assay: NCI five-dose assay; assay type: cell-based, human; details: KM12, Colon cancer
SR = assay: NCI five-dose assay; assay type: cell-based, human; details: Leukemia
OVCAR-8 = assay: NCI five-dose assay; assay type: cell-based, human; details: OVCAR-8, Ovarian cancer
CAKI-1 = assay: NCI five-dose assay; assay type: cell-based, human; details: CAKI-1, Renal cancer
SF-539 = assay: NCI five-dose assay; assay type: cell-based, human; details: SF-539, CNS cancer
NCI-H322M = assay: NCI five-dose assay; assay type: cell-based, human; details: Non-small cell lung cancer
UACC-257 = assay: NCI five-dose assay; assay type: cell-based, human; details: Homo sapiens, UACC-257, Melanoma
[1] = system: Non-small cell lung cancer subpanel; assay: NCI five-dose assay, subpanel mean; assay type: cell-based, human
MDA/MB-231-ATCC = assay: NCI five-dose assay; assay type: cell-based, human; details: Breast cancer
ACHN = assay: NCI five-dose assay; assay type: cell-based, human; details: Renal cancer
HCT-15 = assay: NCI five-dose assay; assay type: cell-based, human; details: HCT-15, Colon cancer
Colon cancer subpanel = assay: NCI five-dose assay, subpanel mean; assay type: cell-based, human
SF-295 = assay: NCI five-dose assay; assay type: cell-based, human; details: SF-295, CNS cancer
tubulin = biological target: T1, tubulin (Sus scrofa, UniProt P02550+P02554); assay: Tubulin polymerization inhibitory assay; assay type: biochemical
T1 construct: purchased Cytoskeleton Inc., Denver, CO, USA
T1 sequence (P02554 whole entry): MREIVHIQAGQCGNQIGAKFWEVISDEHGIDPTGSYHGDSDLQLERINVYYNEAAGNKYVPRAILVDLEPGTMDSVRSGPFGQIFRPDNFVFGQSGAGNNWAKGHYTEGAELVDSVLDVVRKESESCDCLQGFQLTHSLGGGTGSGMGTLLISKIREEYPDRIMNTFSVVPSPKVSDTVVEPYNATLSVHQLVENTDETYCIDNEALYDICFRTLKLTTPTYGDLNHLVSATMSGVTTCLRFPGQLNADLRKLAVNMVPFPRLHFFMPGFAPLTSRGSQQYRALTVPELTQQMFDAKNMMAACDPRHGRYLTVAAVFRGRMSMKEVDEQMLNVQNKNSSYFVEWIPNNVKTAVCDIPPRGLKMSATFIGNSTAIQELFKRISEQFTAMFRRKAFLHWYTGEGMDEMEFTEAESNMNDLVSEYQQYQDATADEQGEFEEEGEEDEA
T1 sequence (P02550 whole entry): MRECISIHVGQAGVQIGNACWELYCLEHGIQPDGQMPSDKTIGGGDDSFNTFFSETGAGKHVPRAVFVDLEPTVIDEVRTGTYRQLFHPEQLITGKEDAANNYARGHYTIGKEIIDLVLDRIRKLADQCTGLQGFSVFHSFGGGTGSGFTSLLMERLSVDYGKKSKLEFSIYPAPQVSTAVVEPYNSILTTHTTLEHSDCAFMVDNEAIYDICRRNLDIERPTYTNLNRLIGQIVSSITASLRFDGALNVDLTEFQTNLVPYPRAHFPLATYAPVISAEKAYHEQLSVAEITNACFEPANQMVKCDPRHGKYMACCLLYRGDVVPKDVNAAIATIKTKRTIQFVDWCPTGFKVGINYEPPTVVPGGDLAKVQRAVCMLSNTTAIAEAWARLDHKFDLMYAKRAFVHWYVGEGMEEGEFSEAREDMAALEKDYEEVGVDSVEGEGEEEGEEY
Description: The substances’ effects on tubulin polymerization were examined using the Tubulin Polymerization Assay Kit (Cytoskeleton Inc., Denver, CO, USA) according to the supplier’s instructions, with details described in Appendix A..
The activity of compounds on tubulin polymerization was investigated using the Tubulin Polymerization Assay Kit (Cytoskeleton Inc., Denver, CO, USA), which works via fluorescent reporter enhancement. […] Docetaxel and vincristine (Apoteket AB, Stockholm, Sweden) served as positive stabilizing and destabilizing controls. Both were used at a 3 µM concentration in PBS.

LOX IMVI = assay: NCI five-dose assay; assay type: cell-based, human; details: Melanoma
Melanoma subpanel = assay: NCI five-dose assay, subpanel mean; assay type: cell-based, human
MDA-MB-468 = assay: NCI five-dose assay; assay type: cell-based, human; details: MDA-MB-468, Breast cancer
[2] = Homo sapiens, 48 h, read-out: LC50 (the source's name)
[3] = Homo sapiens, read-out: GI50 Conc. per Cell Lines
[4] = read-out: GI50 Conc. per Cell Lines

`Cc1ccc(/C(CSc2nnc(-c3c[nH]c4ccccc34)n2-c2ccccc2)=N/O)cc1` [Compound 7h, (Z)-2-((5-(1H-Indol-3-yl)-4-phenyl-4H-1,2,4-triazol-3-yl)thio)-1-(p-tolyl)ethanone Oxime] was tested, and the GI50 (Renal cancer subpanel; Homo sapiens, average sensitivity of all cell lines of the Renal cancer subpanel, read-out: GI50 Subpanel MID b) was 5.77 µM, the “GI50 Selectivity Ratio (MID a/MID b)” value (Renal cancer subpanel; Renal cancer subpanel) was 0.52 and the “TGI Conc. per Cell Lines” value (HCC-2998) was 3.93 µM. The CC50 (HCC-2998; [2]) was 7.39 µM, the GI50 (HCC-2998; [3]) was 2.09 µM and the CC50 (U251; Homo sapiens, U-251, 48 h, read-out: LC50 (the source's name)) was > 100 µM. The GI50 (U251; Homo sapiens, U-251, read-out: GI50 Conc. per Cell Lines) was 8.22 µM, the “TGI Conc. per Cell Lines” value (U251) was >100 µM and the CC50 (NCI-H23; [2]) was > 100 µM. The GI50 (NCI-H23; [3]) was 10.1 µM, the “TGI Conc. per Cell Lines” value (NCI-H23) was 52.20 µM and the “TGI Conc. per Cell Lines” value (BT-549) was 3.03 µM. The CC50 (BT-549; [2]) was 5.78 µM, the GI50 (BT-549; [3]) was 1.59 µM and the LC50 (OVCAR-3; 48 h) was > 100 µM. For the same compound, the GI50 (OVCAR-3; [4]) was 4.26 µM, the GI50 (Ovarian cancer subpanel; Homo sapiens, average sensitivity of all cell lines of the Ovarian cancer subpanel, read-out: GI50 Subpanel MID b) was 2.24 µM and the “GI50 Selectivity Ratio (MID a/MID b)” value (Ovarian cancer subpanel; Ovarian cancer subpanel) was 1.34. The “TGI Conc. per Cell Lines” value (HOP-92) was 37.40 µM, the CC50 (HOP-92; [2]) was > 100 µM and the GI50 (HOP-92; [3]) was 11.9 µM. For the same compound, the CC50 (KM12; [2]) was > 100 µM, the GI50 (KM12; [3]) was 8.64 µM and the “TGI Conc. per Cell Lines” value (KM12) was >100 µM. For the same compound, the CC50 (SR; [2]) was > 100 µM, the “TGI Conc. per Cell Lines” value (SR) was “˃100 µM” and the GI50 (OVCAR-8; [3]) was 2.19 µM. The “TGI Conc. per Cell Lines” value (OVCAR-8) was 4.89 µM, the “TGI Conc. per Cell Lines” value (CAKI-1) was 3.06 µM and the LC50 (CAKI-1; Homo sapiens, 48 h) was 5.74 µM. It also gave a GI50 (CAKI-1; [3]) of 1.63 µM, a CC50 (SF-539; [2]) of 9.43 µM and a GI50 (SF-539; [3]) of 2.06 µM. The “TGI Conc. per Cell Lines” value (SF-539) was 4.41 µM, the CC50 (NCI-H322M; [2]) was > 100 µM and the GI50 (NCI-H322M; [3]) was 3.54 µM. The “TGI Conc. per Cell Lines” value (NCI-H322M) was 19.80 µM, the CC50 (UACC-257; 48 h, read-out: LC50 (the source's name)) was > 100 µM and the GI50 (UACC-257; [4]) was 2.57 µM. For the same compound, the GI50 ([1]; Homo sapiens, average sensitivity of all cell lines of the Non-small cell lung cancer subpanel, read-out: GI50 Subpanel MID b) was 4.44 µM, the “GI50 Selectivity Ratio (MID a/MID b)” value ([1]; Non-small cell lung cancer subpanel) was 0.68 and the “TGI Conc. per Cell Lines” value (MDA/MB-231-ATCC) was 3.33 µM. The LC50 (MDA/MB-231-ATCC; Homo sapiens, 48 h) was 6.27 µM, the GI50 (MDA/MB-231-ATCC; [3]) was 1.77 µM and the LC50 (ACHN; Homo sapiens, 48 h) was 6.26 µM. The GI50 (ACHN; [3]) was 1.79 µM, the “TGI Conc. per Cell Lines” value (ACHN) was 3.35 µM and the “TGI Conc. per Cell Lines” value (HCT-15) was 3.34 µM. The CC50 (HCT-15; [2]) was 6.37 µM, the GI50 (HCT-15; [3]) was 1.75 µM and the “GI50 Selectivity Ratio (MID a/MID b)” value (Colon cancer subpanel; Colon cancer subpanel) was 0.959. For the same compound, the GI50 (Colon cancer subpanel; Homo sapiens, average sensitivity of all cell lines of the Colon cancer subpanel, read-out: GI50 Subpanel MID b) was 3.13 µM, the CC50 (SF-295; [2]) was 6.15 µM and the GI50 (SF-295; [3]) was 1.64 µM. For the same compound, the “TGI Conc. per Cell Lines” value (SF-295) was 3.18 µM, the “%inhibition” value (tubulin; conc 0.01 (unit not given; IC50 from this curve in µg/ml)) was 2.01% and the “%inhibition” value (tubulin; conc 0.1 (unit not given; IC50 from this curve in µg/ml)) was 8.94%. The “%inhibition” value (tubulin; conc 1 (unit not given; IC50 from this curve in µg/ml)) was 26.1%, the “%inhibition” value (tubulin; conc 10 (unit not given; IC50 from this curve in µg/ml)) was 49.9% and the “%inhibition” value (tubulin; conc 100 (unit not given; IC50 from this curve in µg/ml)) was 76.7%. The IC50 (tubulin; read-out: Tub. IC50±SD (converted)) was 18.4 µM, the IC50 (tubulin; read-out: Tubulin Inhibitory Effect, IC50) was 18.4 ± 0.7 µM and the CC50 (LOX IMVI; [2]) was 5.73 µM. The GI50 (LOX IMVI; [3]) was 1.75 µM, the “TGI Conc. per Cell Lines” value (LOX IMVI) was 3.17 µM and the GI50 (Melanoma subpanel; Homo sapiens, average sensitivity of all cell lines of the Melanoma subpanel, read-out: GI50 Subpanel MID b) was 2.78 µM. For the same compound, the “GI50 Selectivity Ratio (MID a/MID b)” value (Melanoma subpanel; Melanoma subpanel) was 1.08, the LC50 (MDA-MB-468; Homo sapiens, 48 h) was 5.64 µM and the GI50 (MDA-MB-468; [3]) was 1.5 µM. For the same compound, the “TGI Conc. per Cell Lines” value (MDA-MB-468) was 2.91 µM.
